Data taken from US7049437B2, “Synthetic process and crystal form of condensed imidazopyridine derivatives” (Shionogi & Co., Ltd., priority 2000, dated 2006).
Where a name gives a salt, the structure may show the parent alone.

Experiments:
[1] = Stability to light (fluorescent lamp exposure; appearance and HPLC remaining rate); format: physicochemical; settings: for appearance / remaining rate (%) / appearance change under light exposure: phosphate monohydrate; for remaining rate (%): HPLC content vs reference kept at −20° C.; for appearance change under light exposure: summary of Table 2
Procedure: In the following Experiments, contents of Compound (I) were determined by HPLC under the following conditions. • Device: WATERS 510, 481, 712 WISP, 741, FD20A or WATERS 510, 486, 712 WISP, 741, FD20A • Column: YMC-packed column AM-302 S-5 120A ODS (4.6 mm φ×150 mm) • Column temperature: room temperature • Mobile phase: methanol/water/TFA=200/800/1 (v/v) • Flow rate: 1.0 ml/min • Wave length: 230 nm • Concentration: 5–85 μg/ml • Injection Volume: 15 μl
After samples were prepared in the same manner of Experiment 1 and sealed, they were kept under 1800 Lux exposure (16 hours exposure per day of a fluorescent lamp, 28800 Lux*hr/day) or under 10000 Lux exposure (continuous exposure of a fluorescent lamp, 240000 Lux*hr/day, average temperature 30±3° C.). As a standard reference sample, each of crystals was put in a sealed container and kept at −20° C. The content of crystals were determined by the absolute calibration curve method using HPLC under the above conditions.

[2] = Stability to heat (crystals kept sealed at 40° C., relative humidity 75%); format: physicochemical; settings: relative humidity of 75%, 6 months, sealed glass container, phosphate monohydrate
Procedure: Prism crystals and needle crystals of Compound (Ia) were used for samples. About 25 mg of each crystal was put in a small glass container with polyethylene cap. Containers were capped, sealed with PARAFILM and kept at 40° C., relative humidity of 75% for 6 months.

| melting point | appearance ([1]; 1800 Lux (16 hours exposure per day), 1 month) | remaining rate (%) ([1]; 1800 Lux, 1 month) | remaining rate (%) ([1]; 1800 Lux, 2 months) | remaining rate (%) ([1]; 1800 Lux, 3 months) | remaining rate (%) ([1]; 1800 Lux, 4 months) | appearance ([1]; 10000 Lux (continuous exposure, 30±3° C.), 1 week) | appearance ([1]; 10000 Lux (continuous exposure, 30±3° C.), 3 weeks) | remaining rate (%) ([1]; 10000 Lux, 1 week) | remaining rate (%) ([1]; 10000 Lux, 2 weeks) | remaining rate (%) ([1]; 10000 Lux, 3 weeks) | remaining rate under light exposure ([1]; after 3 months) | appearance change under light exposure [1] | appearance transition [2] | appearance ([1]; 1800 Lux (16 hours exposure per day), 3 months) | appearance ([1]; 10000 Lux (continuous exposure, 30±3° C.), 2 weeks) | Compound |
| --- | --- | --- | --- | --- | --- | --- | --- | --- | --- | --- | --- | --- | --- | --- | --- | --- |
| 234 to 236 °C | – | – | – | – | – | – | – | – | – | – | – | – | – | – | – | c1cc(-c2nc3c4c(ncc3[nH]2)CCOC4)no1 (as salt: phosphate) (hydrate or solvate) [Needle crystals, 2-(3-isoxazolyl)-3,6,7,9-tetrahydroimidazo[4,5-d]pyrano[4,3-b]pyridine phosphate monohydrate] |
| > 300 °C | – | – | – | – | – | – | – | – | – | – | – | – | – | – | – | c1cc(-c2nc3c4c(ncc3[nH]2)CCOC4)no1 (hydrate or solvate) [Example 1, 2-(3-isoxazolyl)-3,6,7,9-tetrahydroimidazo[4,5-d]pyrano[4,3-b]pyridine] |
| – | ± or + | 98.6% | 98.3% | 96.9% | 97.0% | ± or + | + or ++ | 99.3% | 98.0% | 97.4% | decreased | changed the color to yellow | changed its color to pale yellow | – | – | c1cc(-c2nc3c4c(ncc3[nH]2)CCOC4)no1 [Needle crystals, 2-(3-isoxazolyl)-3,6,7,9-tetrahydroimidazo[4,5-d]pyrano[4,3-b]pyridine phosphate monohydrate] |
| – | – | 100.0% | 99.9% | 100.1% | 100.1% | – | – | 99.5% | 99.7% | 99.2% | – | scarcely changed appearance | not observed appearance transition | − or ± | ± or + | c1cc(-c2nc3c4c(ncc3[nH]2)CCOC4)no1 [Prism crystals, 2-(3-isoxazolyl)-3,6,7,9-tetrahydroimidazo[4,5-d]pyrano[4,3-b]pyridine phosphate monohydrate] |
